From USRE47689E1, “Compounds for treating spinal muscular atrophy” (PTC Therapeutics, Inc., priority 2011, dated 2019)

Assays:
[1] = system: gems (Smn-dependent nuclear speckles); assay: Gems count (Smn-dependent nuclear speckle count) assay; assay type: cell-based, human; conditions: SMA Type 1 patient fibroblasts; 48 hours; fluorescence microscopy
Excerpt: The level of Smn protein directly correlates with the amount of nuclear foci, also known as gems, produced upon staining the cell with a fluorescently labeled anti-Smn antibody (Liu and Dreyfuss, EMBO J., 1996, 15:3555). Gems are multi-protein complexes whose formation is nucleated by the Smn protein and the gems count assay is used to evaluate the level of Smn protein in the cell. As described herein, the gems count assay is used to quantify the level of Smn protein in SMA patient fibroblast cells treated with a test compound.
Protocol: Cells are thawed and incubated in DMEM-10% FBS for 72 hours, then trypsinized, counted and resuspended to 100,000 cells/mL in DMEM-10% FBS. 2 mL of the cell suspension is plated in a 6-well cell culture plate with a sterile cover slip and incubated for 3 to 5 hours. Test compounds are serially diluted 3.16-fold in 100% DMSO to generate a 7-point dilution curve. […]
Cell culture medium is aspirated from the wells containing cover slips and gently washed three times with cold PBS. […] The number of gems is counted per ≥150 nuclei and % activation is calculated using DMSO and 10 nM bortezomib as controls. For each test compound, the cells are examined at all wavelengths to identify test compounds with inherent fluorescence.

Smn protein [2] = assay: Smn protein in tissues of neonatal Δ7 SMA mice; assay type: in vivo, mouse; conditions: neonatal SMA Δ7 homozygous knockout mice; brain, spinal cord, muscle; IP QD from PND 3 to day 9
Procedure: (§1) Protocol. The tissue samples in Safe-Lock tubes are weighed and the volume of RIPA buffer containing the protease inhibitor cocktail is added based on the weight to volume ratios for each type of tissue: Brain (50 mg/mL), Muscle (50 mg/mL) and Spinal Cord (25 mg/mL).
(§2) Tissues are homogenized using the TissueLyzer by bead milling. 5 mm stainless steel beads are added to the sample and shaken vigorously for 5 minutes at 30 Hz in the TissueLyzer. The samples are then centrifuged for 20 minutes at 14,000×g in a microcentrifuge and the homogenates transferred to the PCR plate. The homogenates are diluted in RIPA buffer to approximately 1 mg/mL for HTRF and approximately 0.5 mg/mL for total protein measurement using the BCA protein assay. […] Fluorescence for each well of the plate at 665 nm and 620 nm is measured on an EnVision multilabel plate reader (Perkin-Elmer). The total protein in the tissue homogenate is measured using the BCA assay according to the manufacturer's protocol.
(§3) The normalized fluorescence signal is calculated for each sample, Blank and vehicle control well by dividing the signal at 665 nm by the signal at 620 nm. Normalizing the signal accounts for possible fluorescence quenching due to the matrix effect of the tissue homogenate. […] The ΔF value for each tissue sample well is divided by the total protein quantity (determined using the BCA assay) for that tissue sample. […]

Smn protein [3] = assay: Smn protein levels in tissues of Δ7 SMA mice of the survival study; assay type: in vivo, mouse; conditions: neonatal Δ7 SMA mice; brain and muscle; treated until P47-55 (Compound 35), until P68 (Compound 626)
Procedure: as §1
as §2, with “plate.” for “plate. The homogenates are diluted in RIPA buffer to approximately 1 mg/mL for HTRF and approximately 0.5 mg/mL for total protein measurement using the BCA protein assay.”
as §3
Protocol. […] The number of surviving mice in each group is recorded every day and plotted as a percent of total number of mice. […]

SMILES | number of gems relative to DMSO [1] | total protein normalized Smn level (Smn protein [2]) | Smn protein expression in tissues relative to vehicle treated and age-matched heterozygous mice (Smn protein [3])
CC(C)NCCc1ccc2cc(-c3nc4c(Cl)cccc4s3)c(=O)oc2c1 [Cpd 35, 3-(4-chloro-1,3-benzothiazol-2-yl)-7-[2-(propan-2-ylamino)ethyl]-2H-chromen-2-one] | progressively more gems relative to cells treated with DMSO | dose dependently increased | increased Smn protein expression
CCN1CCN(c2ccc3cc(-c4cn5cc(C)nc(C)c5n4)c(=O)oc3c2)C[C@@H]1C [Cpd 626, 3-(6,8-dimethylimidazo[1,2-a]pyrazin-2-yl)-7-[(3S)-4-ethyl-3-methylpiperazin-1-yl]-2H-chromen-2-one] | progressively more gems relative to cells treated with DMSO | dose dependently increased | increased Smn protein expression
